Laboratory results as given in the supplement of paper PMC5908809.

Tests used:
[1] = tested on: normal NK cells expanded with K562-aAPC; assay: percent inhibition of viability; higher = more inhibition; details: 72 h, IL-2 2.5 ng/mL
Method: (§1)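 Drug sensitivity and resistance testing on K562-aAPC-expanded normal NK cells: 5 concentrations (10-fold steps over a 10,000-fold range), 72 h at 37 °C, viability by CellTiter-Glo normalised to DMSO and benzethonium chloride controls; DSS from the fitted curve.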

DERL-7 (IL-2 2.5 ng/mL) [2] = assay: as above; details: 72 h
IMC-1 (IL-2 20 ng/mL) [3] = assay: as above; details: 72 h
KAI3 (IL-2 2.5 ng/mL) [4] = assay: as above; details: 72 h
KHYG-1 (IL-2 2.5 ng/mL) [5] = assay: as above; details: 72 h
NK-92 (IL-2 2.5 ng/mL) [6] = assay: as above; details: 72 h
NK-YS (IL-2 2.5 ng/mL) [7] = assay: as above; details: 72 h
NKL (IL-2 2.5 ng/mL) [8] = assay: as above; details: 72 h
SNK-6 (IL-2 2.5 ng/mL) [9] = assay: as above; details: 72 h
YT (IL-2 2.5 ng/mL) [10] = assay: as above; details: 72 h
[11] = tested on: normal primary NK cells, pool 1 (3 donors) (IL-2 2.5 ng/mL); assay: as above; details: 72 h
[12] = tested on: normal primary NK cells, pool 1 (3 donors), resting (IL-2 0 ng/mL); assay: as above; details: 72 h
[13] = tested on: normal primary NK cells, pool 2 (3 donors) (IL-2 2.5 ng/mL); assay: as above; details: 72 h
[14] = tested on: normal primary NK cells, pool 3 (3 donors) (IL-2 2.5 ng/mL); assay: as above; details: 72 h
[15] = tested on: normal NK cells expanded with K562-aAPC; assay: drug sensitivity score (DSS) (DSS units); higher = more sensitive; extreme values may be limits of the assay; details: 72 h; IL-2 2.5 ng/mL
Method: as §1

DERL-7 (IL-2 2.5 ng/mL) [16] = assay: as above; details: 72 h
IMC-1 (IL-2 20 ng/mL) [17] = assay: as above; details: 72 h
KAI3 (IL-2 2.5 ng/mL) [18] = assay: as above; details: 72 h
KHYG-1 (IL-2 2.5 ng/mL) [19] = assay: as above; details: 72 h
NK-92 (IL-2 2.5 ng/mL) [20] = assay: as above; details: 72 h
NK-YS (IL-2 2.5 ng/mL) [21] = assay: as above; details: 72 h
NKL (IL-2 2.5 ng/mL) [22] = assay: as above; details: 72 h
SNK-6 (IL-2 2.5 ng/mL) [23] = assay: as above; details: 72 h
YT (IL-2 2.5 ng/mL) [24] = assay: as above; details: 72 h
[25] = tested on: normal primary NK cells, pool 1 (3 donors) (IL-2 2.5 ng/mL); assay: as above; details: 72 h
[26] = tested on: normal primary NK cells, pool 1 (3 donors), resting (IL-2 0 ng/mL); assay: as above; details: 72 h
[27] = tested on: normal primary NK cells, pool 2 (3 donors) (IL-2 2.5 ng/mL); assay: as above; details: 72 h
[28] = tested on: normal primary NK cells, pool 3 (3 donors) (IL-2 2.5 ng/mL); assay: as above; details: 72 h

N#CC[C@H](C1CCCC1)n1cc(-c2ncnc3[nH]ccc23)cn1 [Ruxolitinib] (max concentration tested 10000 nM)
percent inhibition of viability [%]
Details	1 nM	10 nM	100 nM	1000 nM	10000 nM
DERL-7 (IL-2 2.5 ng/mL) [2]	9.24	20.8	64.2	101	101
IMC-1 (IL-2 20 ng/mL) [3]	1.77	-5.31	5.62	58.7	99.6
KAI3 (IL-2 2.5 ng/mL) [4]	18.2	33.2	84.8	97.7	101
KHYG-1 (IL-2 2.5 ng/mL) [5]	7.19	19.2	94.1	108	108
NK-92 (IL-2 2.5 ng/mL) [6]	14.7	23.2	54.9	93.3	105
NK-YS (IL-2 2.5 ng/mL) [7]	3.29	10.2	48.2	68.6	84.1
NKL (IL-2 2.5 ng/mL) [8]	-1.94	49.5	75.1	94.7	101
SNK-6 (IL-2 2.5 ng/mL) [9]	7.33	12.7	73.5	73.9	85.4
YT (IL-2 2.5 ng/mL) [10]	9.67	13.1	30.9	75.8	84.3
[1]	2.08	18.6	65.1	97.8	98.6
[11]	2.57	6.3	49.3	58	74.3
[12]	7.5	-6.83	11.8	-24.4	27.4
[13]	-1.35	14.5	50.1	65	71.7
[14]	3.79	6.55	43	64.5	74.2

Details	drug sensitivity score
DERL-7 (IL-2 2.5 ng/mL) [16]	27.1
IMC-1 (IL-2 20 ng/mL) [17]	12.6
KAI3 (IL-2 2.5 ng/mL) [18]	32.2
KHYG-1 (IL-2 2.5 ng/mL) [19]	32.2
NK-92 (IL-2 2.5 ng/mL) [20]	25.6
NK-YS (IL-2 2.5 ng/mL) [21]	19.8
NKL (IL-2 2.5 ng/mL) [22]	32.6
SNK-6 (IL-2 2.5 ng/mL) [23]	25.9
YT (IL-2 2.5 ng/mL) [24]	17.8
[15]	26.7
[25]	18.5
[26]	0.6
[27]	19.8
[28]	18

C=C1C[C@@H]2[C@H](CC[C@]3(C)C(=O)CC[C@@H]23)[C@@]2(C)C=CC(=O)C=C12 [Exemestane] (max concentration tested 10000 nM)
percent inhibition of viability [%]
Details	1 nM	10 nM	100 nM	1000 nM	10000 nM
DERL-7 (IL-2 2.5 ng/mL) [2]	-0.04	2.07	-0.5	8.21	26.2
IMC-1 (IL-2 20 ng/mL) [3]	-4.22	2.93	0.3	7.31	12.9
KAI3 (IL-2 2.5 ng/mL) [4]	0.1	9.66	6.63	5.02	42
KHYG-1 (IL-2 2.5 ng/mL) [5]	-6.37	13.7	-2.18	12.3	29.8
NK-92 (IL-2 2.5 ng/mL) [6]	-2.32	9.27	5.72	8.66	44.8
NK-YS (IL-2 2.5 ng/mL) [7]	-2.57	3.99	3.16	2.81	18.9
NKL (IL-2 2.5 ng/mL) [8]	-3.13	9.66	-3.12	3.19	14.4
SNK-6 (IL-2 2.5 ng/mL) [9]	-1.73	3.81	3.19	27.1	40.9
YT (IL-2 2.5 ng/mL) [10]	-3.57	11.7	-3.54	1.89	7.92
[1]	-3.29	-0.41	3.42	12.7	35.6
[11]	-3.16	-4.6	2.49	-8.32	47.6
[12]	3.47	-11.3	-6.56	-1.56	75.8
[13]	-7.91	-3.9	6.14	2.28	47.6
[14]	-5.22	-9.04	7.22	1.19	30.5

Details	drug sensitivity score
DERL-7 (IL-2 2.5 ng/mL) [16]	2.16
IMC-1 (IL-2 20 ng/mL) [17]	0.35
KAI3 (IL-2 2.5 ng/mL) [18]	2.96
KHYG-1 (IL-2 2.5 ng/mL) [19]	2.88
NK-92 (IL-2 2.5 ng/mL) [20]	3.74
NK-YS (IL-2 2.5 ng/mL) [21]	0.88
NKL (IL-2 2.5 ng/mL) [22]	0.48
SNK-6 (IL-2 2.5 ng/mL) [23]	5.29
YT (IL-2 2.5 ng/mL) [24]	0
[15]	3.07
[25]	1.99
[26]	4.06
[27]	2.8
[28]	1.49
